Results on two compounds are retold here after BindingDB's records for doi:10.1016/j.bmcl.2006.08.033 (University of Maryland, 2006).

For the test, the target named is Guanine deaminase (Oryctolagus cuniculus). Put plainly: Inhibition of rabbit liver guanase.

SMILES strings stand for the structures.

What is called Ki is the equilibrium dissociation constant of an inhibitor or competing ligand from its target. A lower Ki goes with a stronger hold on the target. In the case of `O=C1NC(CO)C(=O)Nc2nc[nH]c21` (configuration not stated) [4,5,7,8-tetrahydro-6-hydroxymethyl-6H-imidazo[4,5-e][1,4]diazepine-5,8-dione], affinity was put at a Ki of 53.6 µM.

In the case of `O=C1NC(CO)C(=O)Nc2c1ncn2Cc1ccccc1` (configuration not stated) [3-benzyl-4,5,7,8-tetrahydro-6-hydroxymethyl-6H-imidazo[4,5-e][1,4]diazepine-5,8-dione], the affinity, expressed as Ki, was 20.1 µM.
